The values below are quoted from earlier work in patent US9597362B2, “Use of probiotic bacteria in the treatment of infection” (TEAGASC, THE AGRICULTURE AND FOOD DEVELOPMENT AUTHORITY, priority 2003, dated 2017).

One data set concerns Gram-positive bacteria. The note with it: including methicillin resistant staphylococci, vancomycin resistant enterococci, penicillin resistant pneumococci.

Regarding Lacticin 3147, the bactericidal spectrum result in the data set with Gram-positive bacteria is listed as “kills all Gram-positive bacteria tested to date”.

In the case of Lactobacillus acidophilus, in the data set with Salmonella typhimurium (mice fed the probiotic prior to oral challenge), the “pathogen translocation compared with control mice” value is “reduced pathogen translocation to the spleen and liver”. Further, the survival result in the data set on Salmonella typhimurium (probiotic-fed groups) is “increased survival of mice”.
